Data from article PMC7902330, “Pharmacokinetic study of traditional Japanese Kampo medicine shimotsuto used to treat gynecological diseases in rats” (Journal of Natural Medicines, 2021).
Where two headings read alike, the source gives them in different places.

Tests used:
[1] = Nontargeted LC–HRMS detection of ingredients in rat plasma after oral administration of each constituent crude drug; details: n = 2
Method: The rats were fasted for 16 h and then orally administered Angelicae Acutilobae Radix, Paeoniae Radix, Rehmanniae Radix, or Cnidii Rhizoma extract powder suspended in distilled water at a dosage of 1 g/10 mL/kg. […] The two sampling points (1 and 10 h) were set to extensively explore both fast- and slow-absorbing ingredients. The blood samples were centrifuged at 1700×g for 15 min at 4 °C to obtain plasma, and the plasma samples were stored at less than − 75 °C until LC–HRMS analysis.
Before LC–HRMS analysis, the plasma samples were deproteinized using methanol as follows: 100 µL of plasma sample was mixed with 700 µL of methanol and then vortexed for 2 min. After centrifugation at 7000×g for 5 min at 4 °C, the supernatant was collected and then dried using a centrifugal evaporator, dissolved the dried residue in 80 μL of the initial mobile phase of LC, and recentrifuged at 7000×g for 5 min at 4 °C. Finally, a 5 μL aliquot of the supernatant was injected into the LC–HRMS system and analyzed in both positive and negative ion modes.
We interfaced the Acquity Ultra-Performance Liquid Chromatography System (Waters) to a Xevo G2-XS quadrupole time-of-flight MS system (Waters) equipped with an electrospray ionization probe in sensitivity mode. All ions within m/z = 50–1000 were acquired by the MS^E method (data-independent acquisition). […] We created two acquisition functions with different collision energies: a low-energy function with 6 eV collision energy and a high-energy function with 15–40 eV collision energy. The mass spectrometer resolution was set at more than 20,000.

[2] = Pharmacokinetics of ingredients in rat plasma after oral administration of shimotsuto (targeted LC–MS/MS); format: in vivo; details: in vivo
Excerpt: The plasma levels of nine ingredients were quantified using quantitative (targeted) analysis. Among them, seven ingredients (catalpol, paeoniflorin, albiflorin, senkyunolide A, butylphthalide, ferulic acid, and ligustilide) are candidate active ingredients in shimotsuto (Table 1). Two ingredients (bergapten and 8-debenzoylpaeoniflorin) are shimotsuto ingredients which were detected and identified in shimotsuto-treated rat plasma using nontargeted LC–HRMS analysis. The nine ingredients were quantified by collecting plasma samples at 0–24 h after shimotsuto administration, pretreating with the following procedures, and then analyzing by targeted LC–MS/MS using selected reaction-monitoring mode. The LC–MS/MS system was composed of a triple quadruple MS (TripleQuad6500; SCIEX, Framingham, MA, USA) and an Agilent 1290 Infinity LC system (Agilent Technologies, Santa Clara, CA, USA). For highly sensitive and selective quantitative (targeted) analysis of each compound, we preliminarily examined optimal pretreatment and analytical LC–MS/MS methods (e.g., MS parameters and LC conditions).
For quantification of catalpol, paeoniflorin, albiflorin, ferulic acid, and senkyunolide A in plasma, 100 µL of plasma sample was mixed with 20 µL of methanol (or working solution) and 20 µL of internal standard (niflumic acid or swertiamarin) and pretreated by deproteinization using 500 µL of acetonitrile. […] Finally, the dried residue was dissolved in 60 µL of the specific HPLC mobile phase used for analysis and then a 10 μL aliquot was injected into the LC–MS/MS system.
For quantification of ligustilide and butylphthalide in plasma, 200 µL of plasma sample was mixed with 40 µL of methanol (or working solution) and 40 µL of internal standard (imperatorin) and centrifuged at 15000×g for 10 min at 4 °C, the whole volume of supernatant was collected and subsequently pretreated by solid-phase extraction using Oasis HLB Extraction Cartridge (Waters, Milford, MA, USA). The acetonitrile elutes were collected and then dried under a steam of nitrogen gas. Finally, the dried residue was dissolved in 70 µL of the specific HPLC mobile phase and injected 20 µL into the LC–MS/MS system.
For quantification of bergapten in plasma, 100 µL of plasma sample was mixed with 20 µL of methanol (or working solution) and 20 µL of internal standard (niflumic acid) and pretreated by solid-phase extraction using an Oasis HLB 96-well µElution plate. Next, the mixied elutes of acetonitrile and isopropyl alcohol (1:1, v/v) were collected and then dried under a steam of nitrogen gas. Finally, the dried residue was dissolved in 60 µL of the specific HPLC mobile phase and injected 10 µL into the LC–MS/MS system.
For quantification of 8-debenzoylpaeoniflorin in plasma, 100 µL of plasma sample was mixed with 20 µL of methanol (or working solution) and 20 µL of internal standard (niflumic acid) and pretreated by liquid–liquid extraction using 500 µL of ethyl acetate. […] The dried residue was dissolved in 60 µL of the specific HPLC mobile phase and injected 10 µL into the LC–MS/MS system.
In addition, pharmacokinetic parameters of the shimotsuto ingredients detected in the plasma, such as the maximum concentration (Cmax) and area under the plasma level–time curve (AUC0−last), were calculated by noncompartmental moment analysis using Phoenix WinNonlin software (Certara L.P., St. Louis, MO, USA).

[3] = target: T1, human TRPA1 (Homo sapiens, UniProt O75762); experiment: Ca2+ influx assay for TRP channel agonistic activity in T-REx-293 cells; format: cell-based; details: for activation at 10 µM: T-REx-293, 10 µmol/L test ingredient, positive control 20 µmol/L allyl isothiocyanate, read-out: % Activation compared to positive control, TRPA1; for Activation of TRPA1 (in words): TRP stable expression cell lines
T1 construct: The full length of each of human transient receptor potential ankyrin 1 (TRPA1); expressed in transfected cells
Excerpt: (§1) The full length of each of human transient receptor potential ankyrin 1 (TRPA1), transient receptor potential cation channel subfamily V member 1 (TRPV1), transient receptor potential cation channel subfamily V member 4 (TRPV4), and transient receptor potential cation channel subfamily M member 8 (TRPM8) coding region was introduced into a pcDNA4/TO vector (Thermo Fisher Scientific, Waltham, MA, USA) and transfected into T-REx-293 cells (Thermo Fisher Scientific) to obtain stable cell lines expressing human TRPA1, TRPV1, TRPV4, and TRPM8. Next, the cells were cultured in Dulbecco’s Modified Eagle Medium containing 10% fetal bovine serum (FBS), 4 mM L-glutamine, and penicillin/streptomycin.
(§2) First, cells were suspended in culture medium with 1 µg/mL of tetracycline and seeded on a poly-D-lysine-coated 96-well plate at a density of 2.5 × 10^4 cells/well overnight. Next, the cells were used for Ca^2+ influx assay, as described previously with minor modifications, using a FLIPR Calcium 5 Assay Kit (Molecular Devices, San Jose, CA, USA). Briefly, cells were incubated in 80 µL of a Ca^2+-chelating dye dissolved in assay buffer at pH 7.4 (Hanks’ Balanced Salt Solution containing 20 mmol/L of 4-(2-hydroxyethyl)-1-piperazineethanesulfonic acid [HEPES]) for 30 min at room temperature. Next, the plates were assayed in a FlexStation 3 microplate reader (Molecular Devices). The fluorescence intensity was traced entirely for 80 s, and the fluorescence baseline was measured 20 s before application of 20 µL of the test compound (final concentration = 10 µmol/L). The response was expressed as percentage activation as follows:
(§3) Relative fluorescence units (RFU) (% activation) = ([RFUmax − RFUbaseline]/RFUbaseline) × 100
(§4) The activity of each test compound against TRPA1, TRPV1, TRPV4, and TRPM8 was represented as the relative enhancement of the Ca^2+ influx of each positive control as follows: 20 µmol/L of allyl isothiocyanate (TRPA1 agonist), 2 µmol/L of capsaicin (TRPV1 agonist), 4 µmol/L of GSK1016790A (TRPV4 agonist), and 20 µmol/L of icilin (TRPM8 agonist). The dose–response curve was fitted to the sigmoidal dose–response equation (Top: maximum response of each compound), and EC50 was calculated using GraphPad prism 7 software (GraphPad, San Diego, CA, USA).
(§5) Calcium ion influx into TRPA1-, TRPV1-, TRPV4-, or TRPM8-expressing T-REx-293 cells was measured to evaluate the agonistic effect of shimotsuto ingredients on TRP channels. The action of 10 µmol/L of each test ingredient was represented as the relative enhancement of the Ca^2+ influx of each positive control, indicated as follows: 20 µmol/L each of allyl isothiocyanate (TRPA1 agonist), 2 µmol/L capsaicin (TRPV1 agonist), 4 µmol/L GSK1016790A (TRPV4 agonist), and 20 µmol/L icilin (TRPM8 agonist). Dose–response tests of shimotsuto ingredients against TRPA1 were performed to calculate EC50.

[4] = target: T2, human TRPM8 (Homo sapiens, UniProt Q7Z2W7); experiment: as above; format: cell-based; details: 10 µmol/L test ingredient, positive control 20 µmol/L icilin, read-out: % Activation compared to positive control, TRPM8
T2 construct: The full length of each of human transient receptor potential ankyrin 1 (TRPA1); expressed in transfected cells
Excerpt: as §1, §2, §3, §4, §5

[5] = target: T3, human TRPV1 (Homo sapiens, UniProt Q8NER1); experiment: as above; format: cell-based; details: 10 µmol/L test ingredient, positive control 2 µmol/L capsaicin, read-out: % Activation compared to positive control, TRPV1
T3 construct: The full length of each of human transient receptor potential ankyrin 1 (TRPA1), transient receptor potential cation channel subfamily V member 1 (TRPV1); expressed in transfected cells
Excerpt: as §1, §2, §3, §4, §5

[6] = target: T4, human TRPV4 (Homo sapiens, UniProt Q9HBA0); experiment: as above; format: cell-based; details: 10 µmol/L test ingredient, positive control 4 µmol/L GSK1016790A, read-out: % Activation compared to positive control, TRPV4
T4 construct: The full length of each of human transient receptor potential ankyrin 1 (TRPA1); expressed in transfected cells
Excerpt: as §1, §2, §3, §4, §5

[7] = cited from earlier work
[8] = oral Angelicae Acutilobae Radix 1 g/kg

T4 sequence (Q9HBA0 whole entry): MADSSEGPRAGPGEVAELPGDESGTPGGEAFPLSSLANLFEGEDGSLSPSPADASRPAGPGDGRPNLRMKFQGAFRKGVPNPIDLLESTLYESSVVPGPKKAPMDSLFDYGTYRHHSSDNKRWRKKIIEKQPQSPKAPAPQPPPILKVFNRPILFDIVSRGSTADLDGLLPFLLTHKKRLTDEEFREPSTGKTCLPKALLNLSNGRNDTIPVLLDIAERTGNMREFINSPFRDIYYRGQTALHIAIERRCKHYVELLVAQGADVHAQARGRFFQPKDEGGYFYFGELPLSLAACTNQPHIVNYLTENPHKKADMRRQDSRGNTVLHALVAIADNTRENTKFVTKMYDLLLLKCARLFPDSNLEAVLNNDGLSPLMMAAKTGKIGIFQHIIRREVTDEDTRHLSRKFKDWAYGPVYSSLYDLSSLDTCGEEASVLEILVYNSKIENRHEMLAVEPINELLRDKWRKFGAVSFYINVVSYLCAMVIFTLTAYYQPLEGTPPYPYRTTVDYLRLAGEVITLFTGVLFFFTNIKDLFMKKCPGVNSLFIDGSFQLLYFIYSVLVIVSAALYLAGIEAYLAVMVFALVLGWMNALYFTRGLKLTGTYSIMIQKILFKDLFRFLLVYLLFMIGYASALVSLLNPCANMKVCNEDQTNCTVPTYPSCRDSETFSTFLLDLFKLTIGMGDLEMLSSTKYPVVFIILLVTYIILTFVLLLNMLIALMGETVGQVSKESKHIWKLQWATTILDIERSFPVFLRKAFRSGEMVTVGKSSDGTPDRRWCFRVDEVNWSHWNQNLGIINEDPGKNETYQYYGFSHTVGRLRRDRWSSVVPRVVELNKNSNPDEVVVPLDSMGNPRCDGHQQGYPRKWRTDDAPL
T2 sequence (Q7Z2W7 whole entry): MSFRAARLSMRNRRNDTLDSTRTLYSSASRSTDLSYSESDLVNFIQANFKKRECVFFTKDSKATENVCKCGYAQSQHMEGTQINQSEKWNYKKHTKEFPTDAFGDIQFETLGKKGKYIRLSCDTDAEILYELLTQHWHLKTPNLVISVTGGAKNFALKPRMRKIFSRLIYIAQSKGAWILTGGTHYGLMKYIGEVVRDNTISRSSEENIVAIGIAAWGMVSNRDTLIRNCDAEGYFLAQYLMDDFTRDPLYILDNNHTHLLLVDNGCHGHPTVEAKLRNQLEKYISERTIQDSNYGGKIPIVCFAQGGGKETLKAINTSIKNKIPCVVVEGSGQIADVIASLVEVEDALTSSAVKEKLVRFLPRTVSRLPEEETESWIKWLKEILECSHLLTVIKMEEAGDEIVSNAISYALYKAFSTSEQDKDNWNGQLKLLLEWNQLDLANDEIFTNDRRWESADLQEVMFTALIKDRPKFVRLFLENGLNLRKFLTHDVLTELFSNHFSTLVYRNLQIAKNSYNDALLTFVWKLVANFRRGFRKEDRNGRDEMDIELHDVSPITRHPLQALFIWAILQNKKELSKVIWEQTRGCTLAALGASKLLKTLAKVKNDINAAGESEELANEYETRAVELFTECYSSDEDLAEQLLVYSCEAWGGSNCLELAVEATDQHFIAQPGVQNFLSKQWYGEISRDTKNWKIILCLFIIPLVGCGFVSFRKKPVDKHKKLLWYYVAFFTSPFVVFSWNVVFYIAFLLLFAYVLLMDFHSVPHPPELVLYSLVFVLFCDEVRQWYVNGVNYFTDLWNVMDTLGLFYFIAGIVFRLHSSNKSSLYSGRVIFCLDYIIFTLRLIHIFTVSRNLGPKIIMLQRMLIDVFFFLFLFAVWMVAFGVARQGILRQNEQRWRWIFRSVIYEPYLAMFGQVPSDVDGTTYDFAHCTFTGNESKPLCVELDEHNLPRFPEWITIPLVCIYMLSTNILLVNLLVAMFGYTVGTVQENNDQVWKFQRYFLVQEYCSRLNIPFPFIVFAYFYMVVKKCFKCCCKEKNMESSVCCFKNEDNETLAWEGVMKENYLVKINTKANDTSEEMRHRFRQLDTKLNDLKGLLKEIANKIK
T1 sequence (O75762 whole entry): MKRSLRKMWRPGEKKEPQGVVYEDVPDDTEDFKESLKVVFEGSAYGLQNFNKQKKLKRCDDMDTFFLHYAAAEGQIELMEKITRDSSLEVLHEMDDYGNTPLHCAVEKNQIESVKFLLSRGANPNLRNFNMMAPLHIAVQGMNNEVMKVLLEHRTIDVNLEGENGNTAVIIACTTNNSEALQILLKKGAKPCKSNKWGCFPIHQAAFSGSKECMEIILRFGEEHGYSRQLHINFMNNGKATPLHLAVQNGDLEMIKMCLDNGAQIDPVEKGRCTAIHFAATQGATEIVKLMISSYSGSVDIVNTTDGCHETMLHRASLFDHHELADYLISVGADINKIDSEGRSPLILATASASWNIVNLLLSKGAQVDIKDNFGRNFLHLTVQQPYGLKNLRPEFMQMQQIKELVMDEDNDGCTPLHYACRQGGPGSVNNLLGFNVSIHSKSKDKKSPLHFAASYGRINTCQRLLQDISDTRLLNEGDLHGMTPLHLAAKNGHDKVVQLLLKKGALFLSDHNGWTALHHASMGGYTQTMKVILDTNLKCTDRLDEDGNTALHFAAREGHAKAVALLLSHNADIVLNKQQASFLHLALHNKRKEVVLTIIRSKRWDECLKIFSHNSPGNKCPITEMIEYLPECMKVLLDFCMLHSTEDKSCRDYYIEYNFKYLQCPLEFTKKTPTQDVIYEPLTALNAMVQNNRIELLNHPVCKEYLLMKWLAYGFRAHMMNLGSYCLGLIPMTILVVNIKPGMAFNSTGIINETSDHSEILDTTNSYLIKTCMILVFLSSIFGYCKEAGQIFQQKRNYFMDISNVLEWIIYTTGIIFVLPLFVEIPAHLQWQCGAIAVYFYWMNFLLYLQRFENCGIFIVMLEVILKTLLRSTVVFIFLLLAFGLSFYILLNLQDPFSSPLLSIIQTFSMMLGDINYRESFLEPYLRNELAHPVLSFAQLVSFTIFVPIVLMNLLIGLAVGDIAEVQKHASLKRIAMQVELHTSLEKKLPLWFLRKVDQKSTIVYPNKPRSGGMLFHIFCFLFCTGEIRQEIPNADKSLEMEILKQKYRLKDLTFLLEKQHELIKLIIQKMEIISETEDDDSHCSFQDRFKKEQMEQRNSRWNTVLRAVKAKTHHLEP
T3 sequence (Q8NER1 whole entry): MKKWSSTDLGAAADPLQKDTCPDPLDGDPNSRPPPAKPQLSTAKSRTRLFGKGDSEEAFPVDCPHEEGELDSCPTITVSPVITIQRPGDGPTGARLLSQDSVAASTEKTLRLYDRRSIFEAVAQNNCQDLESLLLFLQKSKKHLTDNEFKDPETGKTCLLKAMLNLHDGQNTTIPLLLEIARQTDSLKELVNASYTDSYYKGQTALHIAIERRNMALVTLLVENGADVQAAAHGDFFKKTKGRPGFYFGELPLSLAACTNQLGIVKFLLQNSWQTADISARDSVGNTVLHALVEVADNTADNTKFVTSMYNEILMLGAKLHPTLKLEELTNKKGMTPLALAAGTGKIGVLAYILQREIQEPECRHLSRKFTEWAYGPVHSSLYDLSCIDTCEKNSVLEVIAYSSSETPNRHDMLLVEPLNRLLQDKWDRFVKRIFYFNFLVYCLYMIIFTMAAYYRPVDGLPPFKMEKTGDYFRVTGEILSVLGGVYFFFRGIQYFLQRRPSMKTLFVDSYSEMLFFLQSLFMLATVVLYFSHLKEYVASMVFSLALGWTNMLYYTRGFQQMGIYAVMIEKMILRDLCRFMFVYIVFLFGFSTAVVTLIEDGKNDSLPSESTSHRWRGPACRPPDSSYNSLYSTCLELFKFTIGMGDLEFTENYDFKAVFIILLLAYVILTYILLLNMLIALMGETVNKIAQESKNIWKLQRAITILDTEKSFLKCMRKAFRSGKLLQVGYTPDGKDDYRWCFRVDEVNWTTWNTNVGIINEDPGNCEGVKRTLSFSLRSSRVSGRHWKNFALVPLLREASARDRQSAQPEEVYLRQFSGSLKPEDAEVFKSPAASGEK

Compound	Plasma collected 1 h postadministration (detection) ([1]; oral Cnidii Rhizoma 1 g/kg)	Plasma collected 10 h postadministration (detection) ([1]; oral Cnidii Rhizoma 1 g/kg)	AUC(0-t) ([2]; rat, po, 1 g/kg) [ng·h/mL]	Cmax ([2]; rat, po, 1 g/kg) [ng/mL]	Tmax ([2]; rat, po, 1 g/kg) [min]	activation at 10 µM [3] [%]	Activation of TRPA1 (in words) [3]	activation at 10 µM [4] [%]	activation at 10 µM [5] [%]	activation at 10 µM [6] [%]	further results
CCCC=C1OC(=O)c2ccccc21 [3-Butylidenephthalide]	++ (The number of + signs represent the sample number in which the ingredient was detected in the plasma after administration of each constituent crude drug of shimotsuto (n = 2 per sampling time per crude drug))	Not detected									
CC12CC3(O)OC(O1)C1(CO)C3CC21OC1OC(CO)C(O)C(O)C1O (stereo not shown) [8-Debenzoylpaeoniflorin]			811	466	60	30	slightly activated	2	1	1	Cmax compared to paeoniflorin ([2]; rat): approximately tenfold; Plasma collected 1 h postadministration (detection) ([1]; oral Paeoniae Radix 1 g/kg): ++ (The number of + signs represent the sample number in which the ingredient was detected in the plasma after administration of each constituent crude drug of shimotsuto (n = 2 per sampling time per crude drug)); Plasma collected 10 h postadministration (detection) ([1]; oral Paeoniae Radix 1 g/kg): + (The number of + signs represent the sample number in which the ingredient was detected in the plasma after administration of each constituent crude drug of shimotsuto (n = 2 per sampling time per crude drug))
COc1c2ccoc2cc2oc(=O)ccc12 [Bergapten]						3		0	0	0	AUC(0-t) ([2]; rat plasma, oral shimotsuto 1 g/kg, from mean concentration (n = 3) per time point, read-out: AUC0−last): 0.0105 ng·h/mL; Cmax ([2]; rat plasma, oral shimotsuto 1 g/kg, from mean concentration (n = 3) per time point, read-out: Cmax): 0.0837 ng/mL; Tmax ([2]; rat plasma, oral shimotsuto 1 g/kg, from mean concentration (n = 3) per time point, read-out: tmax): 15 min; Plasma collected 1 h postadministration (detection) [1, 8]: + (The number of + signs represent the sample number in which the ingredient was detected in the plasma after administration of each constituent crude drug of shimotsuto (n = 2 per sampling time per crude drug)); Plasma collected 10 h postadministration (detection) [1, 8]: Not detected
CCCCC1OC(=O)c2ccccc21 (stereo not shown) [Butylphthalide]			4.12	13.7	30	73	potently activated	-1	-1	0	EC50 ([3]; dose–response test, Ca2+ influx, read-out: EC50 against TRPA1): 3200 nM; Pharmacological action related to improvement of blood and the circulatory system ([7]; ref 9): Vasodilation; Pharmacological action related to improvement of blood and the circulatory system ([7]; ref 13): vasorelaxation and increased blood flow effects
O.Oc1cc(O)c2c(c1)O[C@H](c1ccc(O)c(O)c1)[C@@H](O)C2 [Catechin]											Plasma collected 1 h postadministration (detection) ([1]; oral Paeoniae Radix 1 g/kg): ++ (The number of + signs represent the sample number in which the ingredient was detected in the plasma after administration of each constituent crude drug of shimotsuto (n = 2 per sampling time per crude drug)); Plasma collected 10 h postadministration (detection) ([1]; oral Paeoniae Radix 1 g/kg): Not detected
COc1cc(/C=C/COC(=O)/C=C/c2ccc(O)c(OC)c2)ccc1O [Coniferyl ferulate]	++ (The number of + signs represent the sample number in which the ingredient was detected in the plasma after administration of each constituent crude drug of shimotsuto (n = 2 per sampling time per crude drug))	+ (The number of + signs represent the sample number in which the ingredient was detected in the plasma after administration of each constituent crude drug of shimotsuto (n = 2 per sampling time per crude drug))									
COc1cc(O)c2c(=O)cc(C)oc2c1 [Eugenin]	++ (The number of + signs represent the sample number in which the ingredient was detected in the plasma after administration of each constituent crude drug of shimotsuto (n = 2 per sampling time per crude drug))	Not detected									
COc1cc(/C=C/C(=O)O)ccc1O [Ferulic acid]			75	12.4	15	3		5	0	0	Pharmacological action related to improvement of blood and the circulatory system ([7]; ref 14): Vasodilation effect [14]
CCCC[C@@H]1OC(=O)C2=C1CCC=C2 [Senkyunolide A]			8.04	28.9	15	86	potently activated	-1	1	0	EC50 [3]: 1000 nM; Pharmacological action related to improvement of blood and the circulatory system ([7]; ref 8): Vasorelaxation; Pharmacological action related to improvement of blood and the circulatory system ([7]; ref 13): vasorelaxation and increased blood flow effects
